According to ChEMBL document CHEMBL1151725, “A cell wall-active lipopeptide from the fungus Pochonia bulbillosa” (2008):

Test system: Neurospora crassa
Assay: Antifungal activity against Neurospora crassa os-1 mutant assessed as zone of protoplast production at 600 ng/disk after 36 to 48 hrs by microscopic examination
Type: functional

Question: For `CCCCCCCCCC(O)CCCC(=O)N[C@H](C(=O)N[C@H](C)C(=O)N[C@@H](C)C(=O)N[C@@H](C)C(=O)N[C@H](Cc1ccc(O)cc1)C(=O)N[C@H](C(=O)O)C(C)C)[C@@H](C)O` (stereo partly specified), which Activity is on record?
Answer: Its Activity is 20 mm.
